Test results reported in publication PMC5548886 (Cancer Medicine, 2017).

Legend:
BRAF V600E = details: read-out: EC50 for BRAF V600E; preclinical data; cited from earlier work
[1] = system: patients with locally advanced or metastatic melanoma; experiment: Phase I dose-escalation: safety, adverse events (NCI CTCAE v3.0), DLT and MTD; assay type: in vivo
From the text: This study was an open‐label, multicenter, nonrandomized, phase I/II, dose‐escalation study of orally administered RAF265. […] The study was comprised of two phases: A dose escalation phase and an expansion phase at the MTD/RP2D. The dose‐escalation phase was guided by pharmacokinetics (PK), pharmacodynamics (PD) and safety. […] In the expansion phase (cohort 7.1) the PK run in was omitted and patients received a loading dose in 3 divided doses followed by lower daily dose beginning on Cycle 1, Day 2. The cycle length was 28 days in all cohorts. Here, we report the dose escalation and expansion arm investigating a continuous treatment regimen.
Medical history and demographics were collected at screening. The safety of study medication was evaluated on the basis of rate, type, severity graded in accordance with NCI CTCAE version 3.0. Safety assessments consisted of collecting all AEs, serious adverse events (SAEs) with their severity and relationship with study drug, and pregnancies. They included the regular monitoring of hematology, blood chemistry and urine performed at the study center/central laboratory and regular assessments of vital signs, physical condition, body weight, performance status, and cardiac data (i.e. electrocardiogram (ECG)/echocardiogram (ECHO)). Abnormalities in clinical laboratory tests that were considered clinically significant by the Investigator were recorded on the AE CRF. Dose‐limiting toxicities (DLTs) were defined for various organ systems and other clinically relevant adverse effects (Table S1). The DLT window was the first cycle while AEs were captured for the entire course of treatment. Evaluation of tumor response was conducted at Baseline, and at the end of every 8 weeks of treatment. Response was assessed using the Response Evaluation Criteria in Solid Tumors (RECIST) 1.0. A complete or partial response (CR or PR) was confirmed at least 28 days after the first assessment that documented response and every two cycles thereafter until disease progression, initiation of confounding anticancer therapy, death, loss to follow‐up, withdrawal of consent, or study termination. All patients discontinuing from the study for progressive disease were to have their disease progression documented by radiologic evaluation.
The MTD was defined as the dose level with 16–33.3% probability of a DLT. […] Descriptive statistic were used for the analysis of PK, biomarker analysis and tumor response data.

In the case of `Cn1c(Nc2ccc(C(F)(F)F)cc2)nc2cc(Oc3ccnc(-c4ncc(C(F)(F)F)[nH]4)c3)ccc21` [RAF265], the EC50 (BRAF V600E) is listed as […], the “deaths within 28 days of last administration of the study drug” value ([1]; 5 deaths, none deemed treatment related) is listed as 6.5% and the “AEs requiring dose adjustment or interruption, patients” value ([1]; human, in vivo) is listed as 39%. The “Abdominal pain (treatment-emergent grade 3/4)” value ([1]; human, in vivo) was 1 (2.4%) n (%), the “Angina unstable (treatment-emergent grade 3/4)” value ([1]; human, in vivo) was 1 (2.4%) n (%) and the “Ataxia (treatment-emergent grade 3/4)” value ([1]; human, in vivo) was 1 (2.4%) n (%). For the same molecule, the “Basal cell carcinoma (treatment-emergent grade 3/4)” value ([1]; human, in vivo) was 1 (2.4%) n (%), the “Blood lactic acid increased (treatment-emergent grade 3/4)” value ([1]; human, in vivo) was 1 (2.4%) n (%) and the “Cutaneous lupus erythematosus (treatment-emergent grade 3/4)” value ([1]; human, in vivo) was 1 (2.4%) n (%). The “Decreased appetite (treatment-emergent grade 3/4)” value ([1]; human, in vivo) was 2 (4.8%) n (%), the “Diarrhea (treatment-emergent grade 3/4)” value ([1]; human, in vivo) was 4 (9.8%) n (%) and the “Dyspnea (treatment-emergent grade 3/4)” value ([1]; human, in vivo) was 1 (2.4%) n (%). For the same molecule, the “Fatigue (treatment-emergent grade 3/4)” value ([1]; human, in vivo) was 6 (14.4%) n (%), the “Hematological (treatment-emergent grade 3/4)” value ([1]; human, in vivo) was 12 (29.2%) n (%) and the “Hypertension (treatment-emergent grade 3/4)” value ([1]; human, in vivo) was 4 (9.8%) n (%). For the same molecule, the “Hypophosphatemia (treatment-emergent grade 3/4)” value ([1]; human, in vivo) was 1 (2.4%) n (%), the “Lipase increased (treatment-emergent grade 3/4)” value ([1]; human, in vivo) was 2 (4.8%) n (%) and the “Neutropenia (treatment-emergent grade 3/4)” value ([1]; human, in vivo) was 4 (9.8%) n (%). The “Pancytopenia (treatment-emergent grade 3/4)” value ([1]; human, in vivo) was 1 (2.4%) n (%), the “Pulmonary embolism (treatment-emergent grade 3/4)” value ([1]; human, in vivo) was 2 (4.8%) n (%) and the SAE constipation ([1]; human, in vivo) was 2.6%. It also gave an SAE dehydration ([1]; human, in vivo) of 5.2%, an SAE pulmonary embolism ([1]; human, in vivo) of 6.5% and an SAE retinopathy ([1]; human, in vivo) of 2.6%. For the same molecule, the SAE thrombocytopenia ([1]; human, in vivo) was 3.9%, the “Squamous cell carcinoma (treatment-emergent grade 3/4)” value ([1]; human, in vivo) was 2 (4.8%) n (%) and the “Thrombocytopenia (treatment-emergent grade 3/4)” value ([1]; human, in vivo) was 7 (17.1%) n (%). For the same molecule, the “Total (n), treatment-emergent grade 3/4 events” value ([1]; human, in vivo) was 41 (53.2%) n (%), the “Vitreous floaters (treatment-emergent grade 3/4)” value ([1]; human, in vivo) was 2 (4.8%) n (%) and the “Weight loss (treatment-emergent grade 3/4)” value ([1]; human, in vivo) was 1 (2.4%) n (%). The “decreased appetite requiring dose adjustment or interruption” value ([1]; human, in vivo) was 5.2%, the “development of hypertension, patients” value ([1]; human, in vivo) was 17% and the “diarrhea requiring dose adjustment or interruption” value ([1]; human, in vivo) was 6.5%. The “fatigue requiring dose adjustment or interruption” value ([1]; human, in vivo) was 7.8%, the “hypertension requiring dose adjustment or interruption” value ([1]; human, in vivo) was 5.2% and the “nausea requiring dose adjustment or interruption” value ([1]; human, in vivo) was 5.2%. The “overall rate of grade 3 and 4 toxicities” value ([1]; human, in vivo) was 53.2%, the “photopsia requiring dose adjustment or interruption” value ([1]; human, in vivo) was 5.2% and the “serious adverse events (SAEs), patients” value ([1]; human, in vivo) was 37.7%. For the same molecule, the “thrombocytopenia requiring dose adjustment or interruption” value ([1]; human, in vivo) was 3.9%, the “vitreous floaters requiring dose adjustment or interruption” value ([1]; human, in vivo) was 5.2% and the “vitreous floaters, treatment-related adverse effect, patients” value ([1]; human, in vivo) was 27%. The “patients with dose-limiting toxicities” value ([1]; human, in vivo, 28 days) was 6 patients and the “maximum tolerated dose (MTD)” value ([1]; once daily given continuously (dose level 6)) was 48 mg.
